# Values quoted from earlier work in patent US9895453B1, “Shiny ultrasound gel” (priority 2016, dated 2018).
# Key:
# Ps. cepacia = details: initial inoculum 2.7 × 10^6 per gram product, 0.7% Suttocide A
compound,measurement,setting,value
"O=C([O-])CNCO.[Na+] [Suttocide® A, Sodium Hydroxymethylglycinate]",organism growth (count) at 48 hours,"E. Coli; E. Coli, 48 hours, initial inoculum 6.0 × 10^6 per gram product, 0.7% Suttocide A",<10
same,organism growth (count) at 7 days,"E. Coli; E. Coli, 7 days, initial inoculum 6.0 × 10^6 per gram product, 0.7% Suttocide A",<10
same,organism growth (count) at 28 days,"E. Coli; E. Coli, 28 days, initial inoculum 6.0 × 10^6 per gram product, 0.7% Suttocide A",<10
same,kills at a concentration of,"E. Coli; Escheria coli, TABLE 1",0.7%
same,organism growth (count) at 48 hours,"Ps. aeruginosa; Ps. aeruginosa, 48 hours, initial inoculum 9.5 × 10^6 per gram product, 0.7% Suttocide A",<10
same,organism growth (count) at 7 days,"Ps. aeruginosa; Ps. aeruginosa, 7 days, initial inoculum 9.5 × 10^6 per gram product, 0.7% Suttocide A",<10
same,organism growth (count) at 28 days,"Ps. aeruginosa; Ps. aeruginosa, 28 days, initial inoculum 9.5 × 10^6 per gram product, 0.7% Suttocide A",<10
same,kills at a concentration of,"Ps. aeruginosa; Pseudomonas aeruginosa, TABLE 1",0.7%
same,organism growth (count) at 48 hours,"C. ablicans; C. ablicans, 48 hours, initial inoculum 4.3 × 10^6 per gram product, 0.7% Suttocide A",<10
same,organism growth (count) at 7 days,"C. ablicans; C. ablicans, 7 days, initial inoculum 4.3 × 10^6 per gram product, 0.7% Suttocide A",<10
same,organism growth (count) at 28 days,"C. ablicans; C. ablicans, 28 days, initial inoculum 4.3 × 10^6 per gram product, 0.7% Suttocide A",<10
same,kills at a concentration of,"C. ablicans; candida albicans, TABLE 1",0.7%
same,organism growth (count) at 48 hours,Ps. cepacia; 48 hours,<10
same,organism growth (count) at 7 days,Ps. cepacia; 7 days,<10
same,organism growth (count) at 28 days,Ps. cepacia; 28 days,<10
same,organism growth (count) at 48 hours,"A. niger; A. niger, 48 hours, initial inoculum 8.0 × 10^6 per gram product, 0.7% Suttocide A",<10
same,organism growth (count) at 7 days,"A. niger; A. niger, 7 days, initial inoculum 8.0 × 10^6 per gram product, 0.7% Suttocide A",<10
same,organism growth (count) at 28 days,"A. niger; A. niger, 28 days, initial inoculum 8.0 × 10^6 per gram product, 0.7% Suttocide A",<10
same,kills at a concentration of,"A. niger; Aspergillus niger (Aspergillus brasiliensis), TABLE 1",0.7%
same,organism growth (count) at 48 hours,"Staph aureus; Staph aureus, 48 hours, initial inoculum 7.3 × 10^6 per gram product, 0.7% Suttocide A",<10
same,organism growth (count) at 7 days,"Staph aureus; Staph aureus, 7 days, initial inoculum 7.3 × 10^6 per gram product, 0.7% Suttocide A",<10
same,organism growth (count) at 28 days,"Staph aureus; Staph aureus, 28 days, initial inoculum 7.3 × 10^6 per gram product, 0.7% Suttocide A",<10
same,kills at a concentration of,"Staph aureus; Staphylococcus aureus, TABLE 1",0.7%
